Data taken from US8329711B2, “Pyridone-substituted-dihydropyrazolopyrimidinone derivative” (MSD K.K., priority 2007, dated 2012).

Legend:
[1] = system: Cdc2 (Cdk1) tyrosine 15 phosphorylation in NCI-H1299 cells; assay: Cdc2 (Cdk1) tyrosine 15-phosphorylation-inhibitory effect in NCI-H1299 cells, camptothecin-treated (ELISA); assay type: cell-based; settings: Homo sapiens, 200 nM camptothecin 16 hours, then test compound with nocodazole 8 hours, read-out: Cdc2-Y15 Phosphorylation-Inhibitory Effect (H1299, +camptothecin) (EC50)
Text: Pharmacological Test 2 (Method of Determining Drug Potency with Cells (Cdc2 (Cdk1) Tyrosine 15-Phosphorylation-Inhibitory Effect))
Fetal bovine serum (FBS) was gotten from Morgate; media RPMI1640 and DMEM were from Invitrogen; camptothecin was from Sigma; gemcitabine was from Nippon Eli Lilly; nocodazole and protease inhibitor cocktail were from Sigma; rabbit anti-Cdc2 antibody and mouse anti-Cdc2 antibody were from Santa Cruz Biotechnology; rabbit anti-tyrosine 15-phosphorylated Cdc2 antibody and horseradish peroxidase-labeled anti-mouse IgG antibody were from Cell Signaling Technology; sure blue reserve TMB peroxidase substrate was from Kirkegaard and Perry Laboratories.
Human non-small cell lung cancer cells (NCI-H1299) and human colon cancer cells (WiDr) were gotten from American Type Culture Collection (ATCC).
In the method of using NCI-H1299 cells, the cells were suspended in a medium of 10% FBS-added RPMI1640, and the cell suspension was applied to a 96-well Nunclondelta-processed plastic plate (bought from Nunc), in an amount of 2000 cells/100 μL/well, in which the cells were incubated overnight in 5% CO2-95% air at 37° C. Camptothecin was dissolved in dimethyl sulfoxide (DMSO), and diluted with a medium of 10% FBS-added RPMI1640, and then this was applied to the plate on which the cells had been previously sowed, in an amount of 50 μL/well in such a manner that the final concentration of camptothecin could be 200 nM. Then, the cells were incubated for 16 hours at 37° C. in 5% CO2-95% air. A test compound was stepwise diluted with DMSO, then diluted with 4000 nM nocodazole-containing, 10% FBS-added RPMI1640, and applied to the plate on which the camptothecin-treated cells had been sowed, in an amount of 50 μL/well. […] Cdc2 was determined through ELISA as follows: A rabbit anti-Cdc2 antibody solution, which had been diluted 200-fold with 50 mM carbonate-bicarbonate buffer (pH 9.6), was applied to a 96-well maxisorpimmuno plate (bought from Nunc), in an amount of 50 μL/well, and statically kept overnight at 4° C. so as to fix the antibody on the plate. […]

Wee1 kinase = target: T1, Wee1 kinase (Homo sapiens, UniProt P30291); assay: Wee1 kinase-inhibitory effect (33P-ATP filter assay with GST-tagged Wee1); assay type: biochemical; settings: purified GST-Wee1, Poly(Lys,Tyr) substrate, 10 μM ATP, 30° C. for 30 minutes; read-out: Weel-Inhibitory Effect (IC50)
T1 construct: made in house; host or cells: Sf9 insect cells (recombinant baculovirus)
Text: Pharmacological Test 1 (Wee1 Kinase-Inhibitory Effect)
(1) Purification of Wee1 Kinase:
A cDNA of Wee1 kinase with glutathion-S-transferase (GST) fused at the amino terminal thereof was inserted into a baculovirus expression vector to construct a recombinant baculovirus, with which cells of an insect cell line Sf9 were infected for high expression therein. The infected cells were collected and solubilized, and then the GST-tagged Wee1 kinase protein was adsorbed by a glutathion column, and eluted from the column with glutathion, and the active fraction was desalted in a desalting column to give a purified enzyme.
(2) Determination of Wee1 Kinase Activity:
In determination of the Wee1 kinase activity, a synthetic peptide, Poly(Lys,Tyr) Hydrobromide (Lys:Tyr (4:1)) bought from Sigma was used as the substrate.
The amount of the reaction liquid was 21.1 μL; and the composition of the reaction buffer was 50 mM Tris-HCl buffer (pH 7.4)/10 mM magnesium chloride/1 mM dithiothreitol. The purified Wee1 kinase, 2.5 μg of the substrate peptide, 10 μM of non-labeled adenosine triphosphate (ATP) and 1 μCi of [γ-^33P]-labeled ATP (2500 Ci/mmol or more) were added to it, and reacted at 30° C. for 30 minutes. Next, 10 μL of 350 mM phosphate buffer was added to the reaction system to stop the reaction. The substrate peptide was adsorbed by a P81 paper filter 96-well plate, then washed a few times with 130 mM phosphate buffer, and its radioactivity was counted with a liquid scintillation counter. The [γ-^33P]-labeled ATP was bought from Amersham Bioscience.
To add a test compound to the reaction system, the compound was diluted with dimethyl sulfoxide (DMSO) to prepare a series of dilutions. 1.1 μL of each dilution was added to the reaction system. As a control, 1.1 μL of DMSO was added to the reaction system.

T1 sequence (P30291 whole entry): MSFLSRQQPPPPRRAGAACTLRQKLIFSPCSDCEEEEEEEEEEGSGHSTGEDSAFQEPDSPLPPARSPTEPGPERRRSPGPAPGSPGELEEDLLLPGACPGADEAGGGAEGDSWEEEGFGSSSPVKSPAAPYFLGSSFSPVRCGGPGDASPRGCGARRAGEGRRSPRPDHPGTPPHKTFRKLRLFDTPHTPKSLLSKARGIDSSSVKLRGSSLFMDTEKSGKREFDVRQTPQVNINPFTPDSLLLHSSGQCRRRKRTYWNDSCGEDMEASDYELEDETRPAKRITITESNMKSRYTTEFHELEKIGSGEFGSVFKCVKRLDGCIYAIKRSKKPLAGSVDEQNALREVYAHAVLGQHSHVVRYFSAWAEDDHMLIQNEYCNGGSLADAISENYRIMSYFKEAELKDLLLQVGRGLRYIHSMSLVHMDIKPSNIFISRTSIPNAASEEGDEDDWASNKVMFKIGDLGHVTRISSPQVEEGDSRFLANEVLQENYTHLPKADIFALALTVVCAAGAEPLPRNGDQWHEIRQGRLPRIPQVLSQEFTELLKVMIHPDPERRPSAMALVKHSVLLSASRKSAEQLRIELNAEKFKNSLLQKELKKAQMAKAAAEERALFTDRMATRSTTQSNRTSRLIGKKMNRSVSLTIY

SMILES	EC50 [1]	IC50 (Wee1 kinase)
C=CCn1c(=O)c2cnc(Nc3ccc(N4CCN(C)CC4)cc3)nc2n1-c1cccc(-n2ccccc2=O)n1 [Example 1, 6′-(2-allyl-6-{[4-(4-methylpiperazin-1-yl)phenyl]amino}-3-oxo-2,3-dihydro-1H-pyrazolo[3,4-d]pyrimidin-1-yl)-2H-1,2′-bipyridin-2-one]	190 nM	16 nM
C=CCn1c(=O)c2cnc(Nc3ccc(N4CCN(C)CC4)cc3)nc2n1-c1cccc(-n2cc(F)ccc2=O)n1 [Example 5, 6′-(2-allyl-6-{[4-(4-methylpiperazin-1-yl)phenyl]amino}-3-oxo-2,3-dihydro-1H-pyrazolo[3,4-d]pyrimidin-1-yl)-5-fluoro-2H-1,2′-bipyridin-2-one]	260 nM	18 nM
C=CCn1c(=O)c2cnc(Nc3ccc4c(c3)CN(C)CC4)nc2n1-c1cccc(-n2ccccc2=O)n1 [Example 30, 6′-{2-Allyl-6-[(2-methyl-1,2,3,4-tetrahydroisoquinolin-7-yl)amino]-3-oxo-2,3-dihydro-1H-pyrazolo[3,4-d]pyrimidin-1-yl}-2H-1,2′-bipyridin-2-one]	180 nM	17.9 nM
